Source: US20210017607A1, “Methods of Predicting Responsiveness to Cancer Therapies” (The University of Chicago, priority 2019, published 2021)

How the values were obtained:
[1] = system: bone marrow derived macrophages (BMDMs); assay: IFNβ1 ELISA of supernatants after DMXAA treatment; type: cell-based, mouse; details: 36 hours
Experimental: FIGS. 15A-15E. Differential STING pathway activation within B6-Myc (STING^hi) cell lines and BMDMs relative to Myc-CAP (STING^lo) cells. (15A, 15B) The indicated cancer cell lines and BMDMs were treated with DMXAA (mouse STING agonist) for 1 and 24 hours, respectively, and protein extracts were interrogated for cGAS/STING pathway activation with the indicated antibodies by Western blotting. Supernatants were collected from for IFNβ1 ELISA following 36 hours of treatment with DMXAA (15C, 15D). (15E) Syngeneic Myc-CAP (STING^lo) tumors were processed into single cell suspensions and used for phycoerythrin-based sorting of CD45+ cellular fractions. Equal numbers of cells from these fractions were stimulated with DMXAA. Supernatants were collected at 36 hrs for detection of IFNB1 by ELISA; n=3 independent experiments; Significance/p-values were calculated by one-way Anova (for 15C & 15E) or paired t-test (for 15D); TAM=tumor associated macrophage; s.e.=short exposure; l.e.=long exposure.
Generation of BMDMs. Bone marrow derived macrophages were differentiated as previously described. […]

Myc-CAP-PTEN^−/− tumors = assay: Myc-CAP-PTEN−/− syngeneic tumors in vivo (growth, flow cytometry); design: species or system mouse
Experimental: FIGS. 35A-35D. […] (35A) Myc-CAP-PTEN^−/− cells were treated with copanlisib […] (IC90 concentration) in vitro for 24 hours, and protein extracts were harvested for western blotting analysis with the indicated antibodies to analyze PI3K activation. (35B) Supernatants from (35A) were harvested for cytokine array profiling. n=3 independent in vitro experiments. (35C) Mice bearing Myc-CAP-PTEN^−/− established syngeneic tumors (200 mm^3) were treated with copanlisib (14 mg/kg, every other day, until tumors reached 2000 mm^3). Tumor volumes were monitored daily and graphed. (35D) At the end of treatment, tumors were analyzed by flow cytometry for tumor infiltrating immune cell subsets. n=5 mice per group.
FIGS. 37A and 37B. Myc-CAP-PTEN deficient cancers are resistant to ADT/PARPi/PI3Ki/combination due to an absence of macrophage infiltration/activation and secondary CD8/CD4 T cell infiltration following treatment. Syngeneic PTEN-proficient and PTEN-deficient Myc-CAP mice were treated with a single dose of degarelix, rucaparib (PARP inhibitor), BKM120 (pan-PI3K inhibitor), or anti-PD-L1 antibody, singly and in combination for 3 weeks. (37A) Tumor volumes were monitored, as indicated. (37B) Tumors were harvested at the end of treatment and macrophage infiltration and activation (upper left and right panels), and CD4 and CD8 T cell infiltration (lower left and right panels, respectively) were analyzed by flow cytometry. n=3 animals/group.
FIG. 44. […] Syngeneic mice bearing established PTEN-proficient (PTEN^+/+) and PTEN-deficient (PTEN^−/−) Myc-CAP tumors (200 mm^3) were treated with DMXAA ([…] intra-tumoral dose) for 12 days. Tumor volumes were monitored daily and graphed relative to untreated groups. n=3-5 mice per group.
(§1) FIGS. 45A and 45B. […] Syngeneic mice bearing established PTEN-proficient (PTEN^+/+) and PTEN-deficient (PTEN^−/−) Myc-CAP tumors (200 mm^3) were treated with DMXAA (500 μg, single intra-tumoral dose) for 12 days. The harvested tumors were analyzed by flow cytometry for CD45 (45A) and tumor infiltrating immune cell subsets (45B). n=3-5 mice per group.
FIGS. 46A-46C. […] Syngeneic mice bearing established PTEN-proficient (PTEN^+/+) or PTEN-deficient (PTEN^−/−) Myc-CAP tumors (200 mm^3) were treated with DMXAA (500 μg, single intra-tumoral dose) for 12 days. The harvested tumors were analyzed by flow cytometry for activation status of immune cells: (46A) MHC-II/PD-L1 expression on macrophages; (46B) 41bb/PD-1 expression on CD4+FoxP3-T-cells and (46C) on CD8+T-cells. n=3-5 mice per group.
as §1, with “FIG. 47.” for “FIGS. 45A and 45B.”, “CD4+T-cells subsets, specifically FoxP3+” for “CD45 (45A)”, “FoxP3− fractions.” for “tumor infiltrating immune cell subsets (45B).”
In vivo drug efficacy studies using murine tumor models. Wild-type (WT) C57BL/6J, FVB/NJ mice were purchased from Jackson laboratories and mice were kept in an AALAC (American Association for the Accreditation of Laboratory Animal Care) certified barrier facility at the University of Chicago. Animal work was carried out according to approved IACUC (Institutional Animal Care and Use Committee protocols). For Myc-CAP cell line based experiments, mice aged 8-10 weeks were engrafted with 1 million cells re-suspended in 1×PBS, under anesthesia. Treatments were started when tumor volumes reached approximately 250-400 mm^3, and mice were randomly allocated to treatment groups as indicated. Tumor volume was calculated using the formula: 0.5×longest diameter×(shortest diameter)^2. Euthanasia was performed for tumor ulceration and/or tumor diameter >2 cm, as per IACUC-approved protocol. All in vivo treatments were done for 20-23 days and tumor volume measurements were collected on a daily basis. For ID8 tumors, the weights (gm) as well as the abdominal girth (mm) measurements were recorded daily. […]

[2] = DMXAA 500 μg single intra-tumoral dose, 12 days
[3] = relative to PTEN-proficient counterparts
[4] = copanlisib 14 mg/kg every other day

## Cc1ccc2c(=O)c3cccc(CC(=O)O)c3oc2c1C [DMXAA, 5,6-Dimethylxanthenone-4-acetic Acid]
[1]
  fold induction in IFN-β levels: 46.4 fold
Myc-CAP-PTEN^−/− tumors; [2]
  Gr-MDSCs: trend towards decreasing Gr-MDSCs
  global immune infiltration (CD45): increases global immune infiltration
Myc-CAP-PTEN^−/− tumors; DMXAA single intra-tumoral dose, 12 days
  tumor responsiveness of PTEN-deficient relative to PTEN-proficient Myc-CAP tumors: more responsive
Myc-CAP-PTEN^−/− tumors; PTEN-deficient prostate cancer murine models (Example 1)
  response of PTEN-deficient prostate cancers to direct STING agonist: resistant
Myc-CAP-PTEN^−/− tumors; [3]
  macrophage, CD4 and CD8 T-cell activation: selectively increases macrophage, CD4 and CD8 T-cell activation
  regulatory T-cell infiltration: increases regulatory T-cell infiltration

## COc1c(OCCCN2CCOCC2)ccc2c1N=C(NC(=O)c1cnc(N)nc1)N1CCN=C21 [copanlisib]
Myc-CAP-PTEN^−/− tumors; [4]
  MDSC infiltration: decreasing
  tumor growth: retards growth
